# Data as given in patent publication US20240217946A1, “ANTIDEPRESSANT AND ANXIOLYTIC SUBSTITUTED CINNAMAMIDE COMPOUND” (TASLY PHARMACEUTICAL GROUP CO., LTD., priority 2021, published 2024).
# “Also recorded” adds a separate entry of the source. Where a name gives a salt, the structure may show the parent alone. Marks after values point to notes of the source that are not given here.
# Assays:
# [1] = test system: ICR mice; test: Elevated plus maze experiment in mice, single administration; type: in vivo; conditions: for OE % / OT %: 30 min after single administration
# Method: 50 male ICR mice were randomly divided into 5 groups (a solvent control group, estazolam group, M2 high dosage group, M2 medium dosage group, M2 low dosage group), with 10 mice in each group. The compound M2 high, medium and low dosage groups were intragastrically administered at 20 mg/kg. 10 mg/kg and 5 mg/kg, respectively; the positive drug estazolam was intragastrically administered at 2.5 mg/kg; and the solvent control group was gavaged with an equal volume of solvent. Behavior test was performed in each group 30 min after single administration. The experiments were required to be conducted between 8:00 am and […], and all animals entered the test laboratory on the previous day.
# The laboratory was dimly lit (with the lowest brightness that can distinguish the subtle activities of mice at a distance of 1.5 m) and the brightness was kept constant, with a room temperature of about 20° C., and kept quiet. Before the maze test, each mouse was placed in a 35 cm*10 cm*5 cm plastic box and left to explore freely for 5 min and then quickly placed at the central platform of an elevated plus maze, with its head facing one of the open arms, and the following indexes were recorded upon release. Each mouse was tested for 5 min. Observers observed and recorded animal activities at a distance of 1.5 m. At intervals, the maze was wiped with a wet cloth to remove feces, and then wiped with a dry cloth before a next mouse was tested.
# • (1) The number of open arm entries (OE): the number of entries into any open arm, based on the fact that all four claws of the mouse entered the arm, and a complete exit of one claw from the arm indicated the completion of the entry activity; • (2) open arm time (OT): the time of entering an open arm, with the unit of seconds; • (3) the number of close arm entries (CE): the number of entries into any close arm, based on the fact that all four claws of the mouse entered the arm; • (4) close arm time (CT): the time of entering a close arm, with the unit of seconds; • (5) percentage of open arm time: OT %=OT/(OT+CT)*100%; and • (6) percentage of open arm entries: OE %=OE/(OE+CE)*100%.
# 70 male ICR mice were randomly divided into 7 groups (a solvent control group, estazolam group, compound M2 group, compound II-3 group, compound II-4 group, compound II-5 group, and compound II-10 group), with 10 mice in each group. The dosage of M2 and its four structurally similar compounds was determined as 20 mg/kg according to the experimental results of 3.1: the positive drug estazolam was administered intragastrically at 2.5 mg/kg; and the solvent control group was gavaged with an equal volume of solvent. Behavior test was performed in each group 30 min after single administration. The experiments were required to be conducted between 8:00 am and […], and all animals entered the test laboratory on the previous day.
# The behavioral test method and behavioral observation indexes were the same as those in 3.1.
# (§1) Data was expressed as mean±standard (mean±SD) difference, and statistics of data differences were made by one-way analysis of variance (ANOVA) or nonparametric test, and differences between groups were determined by P<0.05.
# [2] = test system: SD rats; test: Vogel drinking conflict experiment in rats, single administration; type: in vivo; conditions: 30 min after single dose, punishment stage 3 min, n = 8
# Method: 75 male SD rats, with the body weight of 180-220 g, were fed adaptively for 1 week, water deprived for 24 h for training period test. The animals screened to be qualified were randomly divided into 7 groups (a solvent control group, estazolam group, compound M2 group, compound II-3 group, compound II-4 group, compound II-5 group and compound II-10 group) according to their body weight, with 8 rats in each group. […] results of 3.1: the positive drug estazolam was administered intragastrically at 1.24 mg/kg; and the solvent control group was gavaged with an equal volume of solvent. The grouped animals were continued to be water deprived for 24 h and were given a single dose, and tested in a punishment experiment 30 min after the single dose.
# The experiment was carried out in two stages. The first stage is a training stage, in which 24 h after water deprivation, animals were placed in an operation box separately, and were allowed to fully explore until they found the bottle mouth and started to lick water (with an intensity of electric shock being 0 mA), a counter automatically recorded the number of licks within 3 min, and the animals that licked water less than 300 times were eliminated.
# Observation index: the number of water licks of rats in the punishment stage.
# as §1
# [3] = test system: mice; conditions: Patent C; cited from earlier work
# [4] = test system: C57 BL/6J male mice; test: Forced swimming experiment in mice; type: in vivo; conditions: 24 h after a single i.p. administration; fluoxetine 10 mg/kg, esketamine 10 mg/kg, M2 3-30 mg/kg
# Description: 1) Forced Swimming Experiment: Also Known as Despair Experiment, an Experiment Usually Used to Test Depression-Like Behavior of Mice
# • Animal: C57 BL/6J male mice (18-20 g)
# Intraperitoneal injection (i.p)
# [5] = test system: mice; conditions: 10 mg/kg continuously for 7 days; cited from earlier work
# [6] = test system: NA reuptake in rat brain synaptosomes; test: 3H-NA reuptake by rat brain synaptosomes; type: biochemical; conditions: 100 μM, positive control
# Description: At present, it is believed that absolute or relative deficiencies of the central monoamine neurotransmitters 5-hydroxytryptamine (5-HT), norepinephrine (NA) and dopamine (DA) are closely related to depression and anxiety.
# Synaptosomes were separated using methods in literature to prepare brain synaptosomes. SD rats were rapidly decapitated with a small animal decapitator. After decapitation, brains were taken out quickly and precooled in an ice-water mixture, and the pia mater and vascular tissue were removed. Brain tissue was taken out. 10 times volume (ml/g) of 10 mM Tris HCl buffer (containing 0.32 M sucrose, pH 7.4) was added, an ultrasonic cell pulverizer was used for homogenization (maintaining at a low temperature), and the brain tissue was homogenized and centrifuged for 10 min (4° C., 1,000 g). After balanced centrifugation (1500 g, 10 min) at 4° C., precipitate was discarded, then supernatant was taken, and centrifugation (20000 g) was performed again for 30 min. The supernatant was discarded and the precipitate, i.e. crude extract of synaptic corpuscles, was retained. The precipitate was further suspended in 0.32 M cold sucrose solution and then carefully laid on 1.2 M and 0.8 M (10 ml each) cold sucrose gradient solutions which had been laid sequentially on the bottom of the tube, followed by balanced centrifugation (38000 g) at 4 °C for 60 min. A suspension band at the 0.8-1.2 M sucrose interface was carefully collected with a puncture needle, which was placed in 10 ml of 0.32 M cold sucrose solution and mixed well, and equilibrium centrifuged (20000 g) at 4 °C for 30 min. The precipitate was refined brain synaptosomes. […]
# (§2) The percentage inhibition of isotope ligand binding by each compound was calculated according to the following equation: […]
# [7] = test system: pyramidal neurons in prefrontal PrL brain area; test: Brain slice electrophysiology, sEPSC of mPFC pyramidal neurons; type: cell-based, mice; conditions: antagonist at working concentration 10 μM
# Description: 2) Brain Slice Electrophysiological Experiment: For Detecting Effect of Compound M2 on mPFC Excitatory Synaptic Transmission • Animal: neonatal mice C57 BL/6J (20-30 days). • Instrument: vibratome (Leica), brain slice electrophysiological system (Axon). • Brain slice electrophysiological experiment method • SEPSC experiment method: Neonatal C57 mice were anesthetized and then perfused with artificial cerebrospinal fluid (ACSF). After decapitation, brain tissue was taken quickly and sliced by vibratome, with a thickness of a brain slice being 300 μm. After the brain slices were incubated at 28 °C for 1 h, whole-cell recordings of mPFC pyramidal neurons were made using a voltage clamp (−70 mV) through a brain slice electrophysiological system. The baseline recording time was 6 min, and then a drug to be tested was added through a perfusion system (the drug was dissolved using ACSF), and the recording time after adding the drug was 6-10 min. Recorded data was analyzed using Minianalysis software, and effects of the drug to be tested on sEPSC frequency and amplitude of medial prefrontal pyramidal neurons in C57 mice were compared.
# All data analysis was done using spss data processing software, and data was expressed by Mean±s.e.m. One-way ANOVA was used to analyze the effect of compound M2 and the effect of compound M2 under the action of dopamine receptor antagonists on sEPSC current: and paired t test was used to analyze sEPSC experimental results. * was marked when p<0.05.
# During the experiment, 10 μM Bicuculine was added to the solution to block GABA receptor, so as to record sEPSC of pyramidal neurons. The experiment investigated effects of different concentrations of compound M2 on spontaneous excitatory postsynaptic […] (sEPSC) of pyramidal neurons in prefrontal PrL brain area, as shown in FIG. 2.
# [8] = test system: DA reuptake in rat brain synaptosomes; test: 3H-DA reuptake by rat brain synaptosomes; type: biochemical; conditions: 100 μM, positive control
# Description: At present, it is believed that absolute or relative deficiencies of the central monoamine neurotransmitters 5-hydroxytryptamine (5-HT), norepinephrine (NA) and dopamine (DA) are closely related to depression and anxiety. This experiment was designed to evaluate, by the method of in vitro monoamine reuptake, the inhibitory effect of two samples of tested compound I-5 and compound M2 on reuptake of 5-HT, NA and DA in rat brain synaptosomes. The preparation of in vitro SD rat brain synaptosomes and isotopic tracer method were employed to investigate IC50 of inhibition of monoamine reuptake of DA, 5-HT and NA in two tested samples, in order to explore the possible mechanism of antidepressant and anxiolytic effects of compound I-5 and compound M2.
# Synaptosomes were separated using methods in literature to prepare brain synaptosomes. SD rats were rapidly decapitated with a small animal decapitator. After decapitation, brains were taken out quickly and precooled in an ice-water mixture, and the pia mater and vascular tissue were removed. Brain tissue was taken out. 10 times volume (ml/g) of 10 mM Tris HCl buffer (containing 0.32 M sucrose, pH 7.4) was added, an ultrasonic cell pulverizer was used for homogenization (maintaining at a low temperature), and the brain tissue was homogenized and centrifuged for 10 min (4° C., 1,000 g). After balanced centrifugation (1500 g, 10 min) at 4° C., precipitate was discarded, then supernatant was taken, and centrifugation (20000 g) was performed again for 30 min. The supernatant was discarded and the precipitate, i.e. crude extract of synaptic corpuscles, was retained. […] The precipitate was suspended in a small amount of Kreb's buffer (NaCl 118 mM, KCl 4.7 mM, CaCl2) 2.5 mM, MgSO4 1.2 mM, KH2PO4 1.2 mM, NaHCO325 mM and Glucose 11.1 mM, pH 7.2-7.4), BCA method was used for protein quantification, and the operation steps were as described in the description. […]
# as §2
# [9] = comparative study (Table 13), 20 mg/kg i.g.
# [10] = comparative study (Table 13), 2.5 mg/kg i.g.
# [11] = dosage exploration study (Table 12), 2.5 mg/kg i.g.
smiles,measurement,setting,value
CC(C)CNC(=O)/C=C/c1cc(I)c2c(c1)OCO2 [Compound II-3],OE %,[1]; [9],41.04 ± 9.52 %
same,OT %,[1]; [9],42.99 ± 11.82 %
same,Number of times of drinking water,[2]; 10 mg/kg i.g.,363.96 ± 145.26
same,effective anxiolytic dosage in mice elevated plus maze experiment,[3],10 mg/kg
"CNCCC(Oc1ccc(C(F)(F)F)cc1)c1ccccc1 (centres unmarked) [fluoxetine, Fluoxetine]",antidepressant-like effect,[4],no antidepressant-like effect
CC(C)CNC(=O)/C=C/c1cc(Cl)c2c(c1)OCO2 [Compound II-4],OE %,[1]; [9],46.79 ± 9.31 %
same,OT %,[1]; [9],53.45 ± 8.33 %
same,anxiolytic activity in elevated plus maze vs solvent control group,"[1]; comparative study, single intragastric administration of 20 mg/kg",significant anxiolytic activity
same,Number of times of drinking water,[2]; 10 mg/kg i.g.,387.07 ± 57.31
same,"reserpine-induced body temperature decrease and akinesia in mice, degree of eye closure",[5],significantly antagonizing
same,effective anxiolytic dosage in mice elevated plus maze experiment,[3],10 mg/kg
CNCCCN1c2ccccc2CCc2ccccc21 [Desipramine hydrochloride],inhibition of 3H-NA reuptake by synaptosomes,[6],100%
"CN[C@]1(c2ccccc2Cl)CCCCC1=O [esketamine, Esketamine]",antidepressant-like effect,[4],had antidepressant-like effect
CCN1CCCC1CNC(=O)c1cc(S(N)(=O)=O)ccc1OC (centres unmarked) [Sulpride],blocking of the enhancement effect of 150 μM compound M2 on sEPSC distribution frequency,[7],can block the enhancement effect; also recorded: significantly block
Br.NCCc1cc(O)c(O)cc1O [6-Hydroxydopamine hydrobromide],inhibition of 3H-DA reuptake by synaptosomes,[8],100%
Clc1ccc2c(c1)C(c1ccccc1)=NCc1nncn1-2 [Estazolam],OE %,[1]; [10],69.60 ± 15.12 %
same,OT %,[1]; [10],73.46 ± 20.29 %
same,OE %,[1]; [11],42.78 ± 15.27 %
same,OT %,[1]; [11],50.12 ± 12.76 %
same,Number of times of drinking water,[2]; 1.24 mg/kg i.g.,540.41/kg2.25*
